Experimental findings from patent US9237749B2, “Antimicrobial combinations of pyrion compounds with polyethyleneimines” (Janssen Pharmaceutica N.V., priority 2010, dated 2016) are described below.

Where two headings read alike, the source gives them in different places.

Common to all, as to assay: Poison Plate Assay
What all share (type): cell-based

In experiment [1] the test system is Aspergillus niger CBS554.65. The following applies: CBS554, 336 h, read-out: MIC-values in ppm. As for the experimental part: (§1) • Name of component: sodium pyrithione (I-a) • PEI 1300 (II-a) having an average molecular weight of approximately 1300 • PEI 70000 (II-b) having an average molecular weight of approximately 70000 • PEI 750000 (II-c) having an average molecular weight of approximately 750000 • Test models: Fungi: to each well of a 24-well microtiter plate, 1000 μl of a rich (Potato Dextrose Agar, PDA: 4 g potato infusion, 20 g bacto dextrose and 15 g bacto agar in 1 liter deionised water) containing the appropriate combination of the test compounds in one of the concentrations of a dose series is added. The nutrient medium is inoculated with the test fungi by adding a spore/mycelium suspension (10 μl) or a small piece of agar from the margin of an actively growing colony and incubated under dark at 27° C. with 70% relative humidity. The growth of the fungi is evaluated after two weeks. • Concentrations: a 24-step doses series is applied, each step being 0.75 times the previous step, as follows: 25.00−18.75 . . . 0.04−0.03 ppm • Test combinations:
(§2) A. G. Nass (1957) “Some aspects of the notions additivity, synergism and antagonism in the simultaneous activity of two antibacterial agents in vitro” Arch. intern. Pharmacodynamie 109: 211-228; Steinberg, D. C. (2000) “Measuring synergy” cosmetics & Toiletries 115(11): 59-62; which is calculated as follows for two compounds A and B: […]
(§3) When the SI is equal to 1.0, additivity is indicated. […].

In experiment [2] the test system is Colletotrichum musae MUCL nr2. The following applies: MUCLNR2, 336 h. The method, then: as §1, §2, §3
Experiment [3] has as its system Humicola grisea MG28. Particulars: Mycothermus thermophilus, MG28, 336 h, read-out: MIC-values in ppm. As for the experimental part: as §1, §2, §3
In experiment [4] the test system is Trichoderma viride CBS189.79. The following applies: CBS189, 336 h. As for the experimental part:
as §1, §2, §3

The mark [5] stands for this setting: read-out: MIC-values in ppm, Table 1, (I-a) with PEI 1300 (II-a), PDA, 27° C., growth evaluated after two weeks.
[6] abbreviates: read-out: MIC-values in ppm, Table 2, (I-a) with PEI 70000 (II-b), PDA, 27° C., growth evaluated after two weeks.

A word on the MIC: it is the lowest concentration found to suppress growth. Regarding `[O-][n+]1ccccc1S` [I-a, sodium pyrithione], the minimal inhibitory concentration (MIC) came out at 0.25 µg/mL in experiment [1]; 0.06 µg/mL in experiment [2] (setting [5]); 0.08 µg/mL in experiment [2] (setting [6]); 0.45 µg/mL in experiment [3]; 1.06 µg/mL in experiment [4] (setting [5]); 1.06 µg/mL in experiment [4] (setting [6]). Besides, in experiment [4] (read-out: MIC-values in ppm, Table 3, (I-a) with PEI 750000 (II-c), PDA, 27° C., growth evaluated after two weeks), the MIC was determined as 0.59 µg/mL.
